Experimental data as given in patent publication US10513521B2, “Compositions and methods for inhibiting BMP” (The Brigham and Women's Hospital, Inc., priority 2014, dated 2019).
Positions count from the first letter of the chain named. pIC50: −log10 of the molar value. “And” between values parts separate entries of the source, which are not always exact repeats. Identical values can stand only once.

Key:
ALK3 = ALK3 (Homo sapiens, UniProt P36894); assay: TR-FRET enzymatic ALK kinase assay, ALK3
Description: (§2) Briefly, the ALKs enzymatic assay was initiated by dispense 2.5 μl enzyme in 1× kinase reaction buffer. The assay plate was then added with compounds followed by incubation at room temperature for 10 minutes. Then 2.5 μl/well substrate was added.

ALK2 [1] = molecular target: T1, ALK2 (Mus musculus, UniProt P37172); assay: HTRF pSMAD1 cell-based ALK2 assay (C2C12 cells, BMP6 as agonist)
T1 construct: The C2C12 cell line was selected for the measurement of ALK2 activity using BMP6 as the agonist; host or cells: C2C12
T1 sequence (P37172 21-509): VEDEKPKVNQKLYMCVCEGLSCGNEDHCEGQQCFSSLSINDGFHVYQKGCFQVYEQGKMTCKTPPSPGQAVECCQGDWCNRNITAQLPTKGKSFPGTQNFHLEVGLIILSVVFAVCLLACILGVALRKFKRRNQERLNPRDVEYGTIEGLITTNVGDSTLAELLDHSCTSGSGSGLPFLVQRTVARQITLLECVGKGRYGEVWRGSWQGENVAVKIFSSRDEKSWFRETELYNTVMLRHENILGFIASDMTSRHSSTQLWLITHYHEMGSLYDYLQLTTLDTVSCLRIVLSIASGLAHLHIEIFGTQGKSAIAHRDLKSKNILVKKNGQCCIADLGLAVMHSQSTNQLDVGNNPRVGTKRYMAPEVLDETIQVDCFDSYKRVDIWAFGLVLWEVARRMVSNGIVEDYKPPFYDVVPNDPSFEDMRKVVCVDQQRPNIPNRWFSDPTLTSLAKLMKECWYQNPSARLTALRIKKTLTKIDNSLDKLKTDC
In short: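 Phospho-SMAD1 HTRF readout, detection incubated overnight at room temperature. Before that: starved cells in 0.1% FBS for 4 h, 30 min compound pretreatment, then 30 min agonist, BMP6 on C2C12 or BMP9 on BAOEC.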

BMP4 = BMP4 HTRF assay; type: cell-based
ALK1 [2] = molecular target: T2, ALK1 (Bos taurus, UniProt A4FUX2); assay: HTRF pSMAD1 cell-based ALK1 assay (BAOEC cells, BMP9 as agonist); set-up: species or system Bovine
T2 construct: The BAOEC cell line was employed for the measurement of ALK1 activity using BMP9 as the agonist; host or cells: BAOEC (bovine aortic endothelial cells)
T2 sequence (A4FUX2 23-503): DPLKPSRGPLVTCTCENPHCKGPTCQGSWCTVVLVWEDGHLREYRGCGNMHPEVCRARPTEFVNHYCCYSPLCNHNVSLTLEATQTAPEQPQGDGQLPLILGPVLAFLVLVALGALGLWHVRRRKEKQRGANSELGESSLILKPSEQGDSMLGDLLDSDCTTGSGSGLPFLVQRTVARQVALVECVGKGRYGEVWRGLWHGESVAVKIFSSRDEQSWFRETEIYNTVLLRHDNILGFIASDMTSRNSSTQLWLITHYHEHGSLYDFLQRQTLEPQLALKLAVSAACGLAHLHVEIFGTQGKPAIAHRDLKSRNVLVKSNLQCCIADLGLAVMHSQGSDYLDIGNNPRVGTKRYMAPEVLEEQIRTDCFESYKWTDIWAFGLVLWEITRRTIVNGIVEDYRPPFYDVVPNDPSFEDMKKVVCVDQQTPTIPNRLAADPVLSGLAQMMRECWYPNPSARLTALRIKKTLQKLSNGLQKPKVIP
Description: 2. HTRF Cell-Based ALK1 and ALK2 Assays in 384-Well Plate Format We have developed a cell based ALK1 kinase assay and a cell-based ALK2 assay. The BAOEC cell line was employed for the measurement of ALK1 activity using BMP9 as the agonist. The C2C12 cell line was selected for the measurement of ALK2 activity using BMP6 as the agonist. The kinase specificity was defined by the specific cell line and agonist. The kinase activity was determined by the status of SMD 1/5/8 phosphorylation stimulated by the agonist.
HyClone Fetal Bovine Serum was obtained from GE healthcare life sciences (Logan, Utah). BMP6 and BMP9 were purchased from R&D System. […] The compound plates and the white solid MB assay plates were purchased from Greiner Bio-one (Monroe, N.C.).
(§1) HTRF optimization experiments were performed in 384 well plate format. […] Pre-starved cells were then plated in 384 well plate in the starvation medium (containing in 0.1% FBS). After 4 hours, compounds were added to the assay plate and incubated for 30 minutes. The assay plate was then added with BMP6 for C2C12 cells or BMP9 for BAOEC cells and incubated for 30 minutes.
HTRF assay was performed to measure the status of SMAD 1 phosphorylation after stimulated with the agonist (Table 3). This HTRF phospho SMAD1 cell assay was developed and optimized for the homogenous detection of phospho SMAD 1 levels in cells. […] The plate was incubated at room temperature for overnight.

ALK1 [3] = molecular target: ALK1 (Homo sapiens, UniProt P37023); assay: TR-FRET enzymatic ALK kinase assay, ALK1
Description: as §2

ALK4 = molecular target: T3, ALK4 (Homo sapiens, UniProt P36896); assay: TR-FRET enzymatic ALK kinase assay, ALK4
T3 sequence (P36896 24-505): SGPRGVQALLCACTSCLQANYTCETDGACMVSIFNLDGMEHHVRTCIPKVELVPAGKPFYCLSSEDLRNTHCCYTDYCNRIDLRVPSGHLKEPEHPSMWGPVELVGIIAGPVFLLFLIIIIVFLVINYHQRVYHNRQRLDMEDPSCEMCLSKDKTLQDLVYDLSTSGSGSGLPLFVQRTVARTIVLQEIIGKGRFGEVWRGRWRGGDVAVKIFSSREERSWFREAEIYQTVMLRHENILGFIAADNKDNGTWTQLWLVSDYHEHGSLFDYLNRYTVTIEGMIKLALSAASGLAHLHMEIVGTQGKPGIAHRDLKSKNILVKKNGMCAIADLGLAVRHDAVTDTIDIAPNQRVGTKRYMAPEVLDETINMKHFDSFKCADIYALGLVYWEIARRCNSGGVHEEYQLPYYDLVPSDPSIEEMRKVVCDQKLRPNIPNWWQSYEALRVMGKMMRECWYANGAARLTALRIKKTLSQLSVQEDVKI
Description: as §2

[4] = Cell-based assay, TGFb1 (Cell IC50)
ALK5 = molecular target: T4, ALK5 (Homo sapiens, UniProt P36897); assay: TR-FRET enzymatic ALK kinase assay, ALK5
T4 sequence (P36897 34-503): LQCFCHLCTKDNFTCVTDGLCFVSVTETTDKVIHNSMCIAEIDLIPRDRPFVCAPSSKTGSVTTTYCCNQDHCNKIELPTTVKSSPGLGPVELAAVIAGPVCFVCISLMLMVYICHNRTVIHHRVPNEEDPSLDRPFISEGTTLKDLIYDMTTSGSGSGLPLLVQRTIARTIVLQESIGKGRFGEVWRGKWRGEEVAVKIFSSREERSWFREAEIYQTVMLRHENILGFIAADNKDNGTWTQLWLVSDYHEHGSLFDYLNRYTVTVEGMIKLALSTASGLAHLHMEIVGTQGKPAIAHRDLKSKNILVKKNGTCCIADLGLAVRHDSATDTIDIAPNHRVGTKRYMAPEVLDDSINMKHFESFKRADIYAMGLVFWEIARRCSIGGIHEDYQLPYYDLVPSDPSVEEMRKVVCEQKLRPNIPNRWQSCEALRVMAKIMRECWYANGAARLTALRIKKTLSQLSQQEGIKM
Description: Six ALK kinase enzyme assays were developed for determination of compound activities on ALK1, ALK2, ALK3, ALK4, ALK5 and ALK6.
as §2

ALK6 = ALK6 (Homo sapiens, UniProt O00238); assay: TR-FRET enzymatic ALK kinase assay, ALK6
Description: as §2

ALK2 [5] = molecular target: T5, ALK2 (Homo sapiens, UniProt Q04771); assay: TR-FRET enzymatic ALK kinase assay, ALK2
T5 sequence (Q04771 21-509): T1 sequence (P37172 21-509) with V1M, Q10P, I121L, E162D, S310P
Description: as §2

ALK2 [6] = molecular target: T1, ALK2; assay: In-cell Western ALK2 assay (C2C12 cells, BMP6 as agonist); type: cell-based; settings: read-out: BMP6 ICW
Text: 3. In-Cell Western ALK1 and ALK2 Assays in 384-Well Plate Format.
We also optimized cell-based In-cell Western assays for measurements of ALK1 and ALK2 activities that were used to determine compound activities in these two kinases. The cell lines and agonists used were same as described in above cell-based HTRF ALK1 and ALK2 assays. The initial cell plating and compound treatment were also same. The main difference is the detection of phosphorylation status of SMAD1. In t-cell Western assay, the cells were fixed and phosphorylation status of SMAD1 was detected by the ELISA instead of using the HTRF assay kit in above assay.
HyClone Fetal Bovine Serum was obtained from GE healthcare life sciences (Logan, Utah). BMP6 and BMP9 were purchased from R&D System (R&D). Anti-P-SMAD 1/5/8 rabbit mAb and anti-rabbit IgG, HRP-Linked antibody were purchased from Cell Signaling Technology (Danvers, Mass.). BioFX Chemiluminescent Ultra-Sensitive HRP Microwell Substrate ECL Reagent was obtained from SurModics (Edina, Minn.). The compound plates and the white solid MB assay plates were from Greiner Bio-one (Monroe, N.C.).
as §1, with “Similarly as described in above HTRF” for “HTRF”, “cell-based assay, this assay was” for “optimization experiments were”, “compound dilutions in DMSO” for “compounds”
The cells were washed in the plate washer with PBS and blocked with 2% BSA in PBS for 1 h at room temperature on the rotator. After removing the blocking reagent, the cells were incubated with the anti-p-SMAD1 antibody in 2% BSA in PBS for overnight at 4° C. on rotator. The cells were washed with PBS in the plate washer and incubated with HRP conjugated second antibody in 2% BSA in PBS for 1 hour at room temperature. After a cell wash with PBS, ECL detection reagent was added and the plate was read in the luminesce mode in the ViewLux plate reader.

Sequence of ALK3 (P36894 24-532): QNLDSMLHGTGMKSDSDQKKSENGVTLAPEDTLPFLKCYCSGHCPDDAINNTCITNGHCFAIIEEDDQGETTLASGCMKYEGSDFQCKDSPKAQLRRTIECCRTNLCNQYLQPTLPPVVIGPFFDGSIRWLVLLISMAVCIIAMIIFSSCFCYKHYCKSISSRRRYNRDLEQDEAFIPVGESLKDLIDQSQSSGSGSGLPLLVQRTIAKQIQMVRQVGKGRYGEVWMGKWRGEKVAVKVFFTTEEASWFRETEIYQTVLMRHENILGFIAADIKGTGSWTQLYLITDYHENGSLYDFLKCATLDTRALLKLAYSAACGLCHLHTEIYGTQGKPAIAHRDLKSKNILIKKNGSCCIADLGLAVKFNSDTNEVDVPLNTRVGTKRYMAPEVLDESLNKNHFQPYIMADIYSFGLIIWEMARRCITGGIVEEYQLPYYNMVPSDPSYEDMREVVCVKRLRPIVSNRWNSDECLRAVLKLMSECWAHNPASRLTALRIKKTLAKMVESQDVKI
Sequence of ALK6 (O00238 14-502): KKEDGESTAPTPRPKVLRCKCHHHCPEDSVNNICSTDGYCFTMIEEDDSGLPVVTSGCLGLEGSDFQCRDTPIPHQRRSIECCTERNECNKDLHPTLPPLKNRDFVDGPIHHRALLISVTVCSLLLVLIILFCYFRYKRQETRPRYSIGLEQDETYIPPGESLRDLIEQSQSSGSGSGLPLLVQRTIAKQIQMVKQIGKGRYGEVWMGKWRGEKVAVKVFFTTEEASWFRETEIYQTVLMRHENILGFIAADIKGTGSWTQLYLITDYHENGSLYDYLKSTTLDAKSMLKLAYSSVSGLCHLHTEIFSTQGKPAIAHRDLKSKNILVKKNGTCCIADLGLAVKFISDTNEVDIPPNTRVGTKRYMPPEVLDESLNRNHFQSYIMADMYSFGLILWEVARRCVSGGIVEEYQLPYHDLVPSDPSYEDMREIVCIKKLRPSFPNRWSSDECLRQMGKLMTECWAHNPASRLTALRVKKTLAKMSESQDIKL
Sequence of ALK1 (Homo sapiens, UniProt P37023) (P37023 22-503): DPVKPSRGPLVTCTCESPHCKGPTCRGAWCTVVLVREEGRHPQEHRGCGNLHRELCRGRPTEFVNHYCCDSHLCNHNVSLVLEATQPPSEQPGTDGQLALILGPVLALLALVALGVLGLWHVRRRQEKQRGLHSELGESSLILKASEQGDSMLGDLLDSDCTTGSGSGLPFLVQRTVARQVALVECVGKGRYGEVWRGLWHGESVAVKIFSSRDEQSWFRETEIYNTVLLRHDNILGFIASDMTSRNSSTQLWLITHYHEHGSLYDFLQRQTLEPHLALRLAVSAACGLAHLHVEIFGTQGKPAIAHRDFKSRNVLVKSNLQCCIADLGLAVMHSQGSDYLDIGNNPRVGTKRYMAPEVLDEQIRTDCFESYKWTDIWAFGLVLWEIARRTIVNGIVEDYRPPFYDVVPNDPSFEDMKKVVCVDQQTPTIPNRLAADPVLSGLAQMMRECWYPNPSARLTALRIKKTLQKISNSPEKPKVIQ

pIC50 (ALK3)	pIC50 (ALK2 [1]; HTRF assay, BMP6 as agonist, C2C12 cells, read-out: BMP6 HTRF)	pIC50 (ALK2 [1]; cell-based assay, BMP6, read-out: Cell IC50 BMP6)	pIC50 (BMP4)	pIC50 (ALK1 [2])	pIC50 (ALK1 [3])	pIC50 (ALK4)	pIC50 [4]	pIC50 (ALK5)	pIC50 (ALK6)	pIC50 (ALK2 [5])	pIC50 (ALK2 [6])	SMILES
7.47	7.33	8.70	6.09	7.48	8.40	5.87	6.61	5.33	6.19	8.01	–	C[C@@H]1CNC[C@H](C)N1c1ccc(-c2cnc3c(-c4ccc(CO)c5ccccc45)cnn3c2)cc1 [Compound 22, (4-(6-(4-((2R,6S)-2,6-dimethylpiperazin-1-yl)phenyl)pyrazolo[1,5-a]pyrimidin-3-yl)naphthalen-1-yl)methanol]
< 5.00	–	–	–	–	6.60	< 5.00	–	< 5.00	< 5.00	7.12	6.82 and 6.60	CS(=O)(=O)c1cccc(-c2cnn3cc(-c4ccc(C5CCCCN5)cc4)cnc23)c1 (stereo not drawn) [Compound 137, 3-(3-(methylsulfonyl)phenyl)-6-(4-(piperidin-2-yl)phenyl)pyrazolo[1,5-a]pyrimidine]
